According to US12336981B2, “Compounds and compositions for the inhibition of NAMPT” (Valo Health, Inc., priority 2010, dated 2025):
Read-outs that look alike come from different tables or passages of the source.

Legend:
NAMPT = biological target: T1, NAMPT (Homo sapiens, UniProt P43490); experiment: Biochemical inhibition assay: NAMPT enzymatic reaction, NMN quantified by mass spectrometry; settings: read-out: Biochem IC50
T1 construct: His tag; host or cells: E. coli
How it was run: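 Inhibition of E. coli-expressed His-tagged human NAMPT, measured as NMN formation by mass spectrometry after a 30 min room-temperature reaction containing 1 μM NAM, 100 μM PRPP and 2.5 mM ATP.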

A2780 cells = experiment: In-vitro cell proliferation assay (SRB), A2780 cells; type: cell-based; settings: Homo sapiens, A2780, 72 h, A2780 cells, 72 hours, read-out: A2780 IC50
How it was run: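 Growth inhibition was derived from background-corrected SRB absorbance (570 nm), measured on cells fixed in 6% TCA after three days of compound treatment under 5% CO2 at 37° C.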

T1 sequence (P43490 whole entry): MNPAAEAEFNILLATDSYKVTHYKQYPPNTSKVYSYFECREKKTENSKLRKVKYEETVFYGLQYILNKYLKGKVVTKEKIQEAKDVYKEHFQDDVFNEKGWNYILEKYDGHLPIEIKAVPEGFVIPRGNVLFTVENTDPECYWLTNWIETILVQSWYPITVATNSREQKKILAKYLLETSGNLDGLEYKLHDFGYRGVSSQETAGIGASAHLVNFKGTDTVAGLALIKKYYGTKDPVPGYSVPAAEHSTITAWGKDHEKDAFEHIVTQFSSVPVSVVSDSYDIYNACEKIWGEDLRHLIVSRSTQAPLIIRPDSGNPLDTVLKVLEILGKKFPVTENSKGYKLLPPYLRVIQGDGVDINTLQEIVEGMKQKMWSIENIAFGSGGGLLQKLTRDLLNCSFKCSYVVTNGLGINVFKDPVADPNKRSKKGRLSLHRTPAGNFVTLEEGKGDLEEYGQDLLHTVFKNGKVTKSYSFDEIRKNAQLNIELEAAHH

SMILES | IC50 (NAMPT; NAMPT enzymatic assay) | IC50 (A2780 cells; SRB) | IC50 (NAMPT; NAMPT enzymatic reaction) | IC50 (A2780 cells; SRB assay)
CN(C)c1ccc(S(=O)(=O)c2ccc(CNC(=O)c3cnc4[nH]ncc4c3)cc2)cn1 [N-({4-[6-(dimethylamino)pyridine-3-sulfonyl]phenyl}methyl)-1H-pyrazolo[3,4-b]pyridine-5-carboxamide] | 30.5 nM | 3.3 nM |  | 
Cc1ccc(S(=O)(=O)c2ccc(CNC(=O)c3cc4cnccc4[nH]3)cc2)cn1 [N-{[4-(6-methylpyridine-3-sulfonyl)phenyl]methyl}-1H-pyrrolo[3,2-c]pyridine-2-carboxamide] | 55.7 nM | 13 nM |  | 
COc1cc(-n2cccn2)ccc1S(=O)(=O)c1ccc(CNC(=O)c2cnc3[nH]ncc3c2)cc1 | 24.2 nM | 9.4 nM |  | 
COc1cc(S(=O)(=O)c2ccc(CNC(=O)c3ccc4nccn4c3)cc2)ccc1F |  | 6.7 nM | 19.7 nM | 
COc1cc(F)ccc1S(=O)(=O)c1ccc(CNC(=O)c2cc3ccncc3s2)cc1 [N-({4-[(4-fluoro-2-methoxybenzene)sulfonyl]phenyl}methyl)thieno[2,3-c]pyridine-2-carboxamide] |  |  | 9 nM | 6.5 nM
CN(C)c1ccc(S(=O)(=O)c2ccc(CNC(=O)c3cc4ccncc4o3)cc2)cn1 [N-({4-[6-(dimethylamino)pyridine-3-sulfonyl]phenyl}methyl)furo[2,3-c]pyridine-2-carboxamide] | 3 nM | 1.8 nM |  | 
O=C(NCc1ccc(S(=O)(=O)c2cccnc2)cc1)c1cc2ccncc2o1 [N-{[4-(pyridine-3-sulfonyl)phenyl]methyl}furo[2,3-c]pyridine-2-carboxamide] | 9 nM | 66.4 nM |  | 
NS(=O)(=O)c1cccc(S(=O)(=O)c2ccc(CNC(=O)c3ccc4nccn4c3)cc2)c1 |  | 54.6 nM | 10.3 nM | 
COc1ccc(S(=O)(=O)c2ccc(CNC(=O)c3cc4cnccc4[nH]3)cc2)cc1 [N-({4-[(4-methoxybenzene)sulfonyl]phenyl}methyl)-1H-pyrrolo[3,2-c]pyridine-2-carboxamide] |  |  | 11 nM | 9 nM
COc1ccc(S(=O)(=O)c2ccc(CNC(=O)c3ccc4nccn4c3)cc2)c(OC)c1 [N-({4-[(2,4-dimethoxybenzene)sulfonyl]phenyl}methyl)imidazo[1,2-a]pyridine-6-carboxamide] |  | 15.1 nM | 58.2 nM | 
O=C(NCc1ccc(S(=O)(=O)c2ccc(-c3ccccc3)cc2)cc1)c1ccc2ncsc2c1 [N-({4-[(4-phenylbenzene)sulfonyl]phenyl}methyl)-1,3-benzothiazole-6-carboxamide] |  | 100 to 1000 nM | 20.7 nM | 
O=C(NCc1ccc(S(=O)(=O)c2cc(C(F)(F)F)ccn2)cc1)c1cc2ccncc2s1 [N-({4-[4-(trifluoromethyl)pyridine-2-sulfonyl]phenyl}methyl)thieno[2,3-c]pyridine-2-carboxamide] | 3.6 nM | 3 nM |  | 
O=C(NCc1ccc(S(=O)(=O)c2cccc(C(F)(F)F)n2)cc1)c1cc2ccncc2o1 [N-({4-[6-(trifluoromethyl)pyridine-2-sulfonyl]phenyl}methyl)furo[2,3-c]pyridine-2-carboxamide] | 5 nM | 3.1 nM |  | 
Cc1cnc(S(=O)(=O)c2ccc(CNC(=O)c3cnc4nccn4c3)cc2)n1C [N-{[4-(1,5-dimethyl-1H-imidazole-2-sulfonyl)phenyl]methyl}imidazo[1,2-a]pyrimidine-6-carboxamide] | 32.9 nM | 1000 to 10000 nM |  | 
Cc1nc(S(=O)(=O)c2ccc(CNC(=O)c3cnc4[nH]ncc4c3)cc2)cs1 [N-{[4-(2-methyl-1,3-thiazole-4-sulfonyl)phenyl]methyl}-1H-pyrazolo[3,4-b]pyridine-5-carboxamide] | 82.8 nM | 20.7 nM |  | 
Cc1cc(Cl)cc(S(=O)(=O)c2ccc(CNC(=O)c3cnc4[nH]ncc4c3)cc2)c1 |  | 2.6 nM | 6.2 nM | 
CCCCOc1cccc(S(=O)(=O)c2ccc(CNC(=O)c3cnc4[nH]ncc4c3)cc2)c1 [N-({4-[(3-butoxybenzene)sulfonyl]phenyl}methyl)-1H-pyrazolo[3,4-b]pyridine-5-carboxamide] |  | 67.5 nM | 38.4 nM | 
Cc1cc(Cl)cc(S(=O)(=O)c2ccc(CNC(=O)c3ccc4nccn4c3)cc2)c1 |  | 2 nM | 6.4 nM | 
CCOc1ccc(Cl)cc1S(=O)(=O)c1ccc(CNC(=O)c2ccc3nccn3c2)cc1 |  | 0.5 nM | 2.2 nM | 
CC(C)c1cccc(S(=O)(=O)c2ccc(CNC(=O)c3cnc4[nH]ncc4c3)cc2)c1 | 13.9 nM | 6.3 nM |  | 
O=C(NCc1ccc(S(=O)(=O)c2cccc(-c3ccccc3)c2)cc1)c1cnc2nccn2c1 |  | 3.3 nM | 0.9 nM | 
COc1cc(F)c(F)cc1S(=O)(=O)c1ccc(CNC(=O)c2cc3ccncc3s2)cc1 [N-({4-[(4,5-difluoro-2-methoxybenzene)sulfonyl]phenyl}methyl)thieno[2,3-c]pyridine-2-carboxamide] |  |  | 5 nM | 2.9 nM
